From ChEMBL document CHEMBL3286118, “Synthesis and in vitro antitumor activity of novel 2-alkyl-5-methoxycarbonyl-11-methyl-6H-pyrido[4,3-b]carbazol-2-ium and 2-alkylellipticin-2-ium chloride derivatives” (Eur J Med Chem, 2014) come the findings set out here.

A word on the IC50: it is the concentration at which inhibition is half-maximal.

The structures appear in SMILES notation.

A short description of the experiment: Cytotoxicity against human HeLaS3 cells assessed as cell viability after 24 to 72 hrs by MTT assay. It is filed as functional, cell-based. To be noted: HeLa S3.
Regarding `CNC(=O)NCCCCC[n+]1ccc2c(C)c3c(c(C)c2c1)c1cc(O)ccc1n3C`, the IC50 is 32.5 µM.
Under `CNC(=O)NCC[n+]1ccc2c(C(=O)OC)c3[nH]c4ccccc4c3c(C)c2c1` stands 6.6 µM.
To `Cc1c2cc[n+](CCOCCN)cc2c(C)c2c1[nH]c1ccccc12` belongs 27.8 µM.
Consider `Cc1c2c[n+](CCOCCNC(=O)N(C)N=O)ccc2c(C)c2c1c1cc(O)ccc1n2C`, for which the IC50 is 18.4 µM.
Under `CNC(=O)NCCC[n+]1ccc2c(C(=O)OC)c3[nH]c4ccccc4c3c(C)c2c1` stands 24 µM.
To `COC(=O)c1c2cc[n+](CCCNC(=O)N(C)N=O)cc2c(C)c2c1[nH]c1ccccc12` belongs 1.3 µM; to `COC(=O)c1c2cc[n+](CCNC(=O)N(C)N=O)cc2c(C)c2c1[nH]c1ccccc12`, 15 µM.
In the case of `CN(N=O)C(N)=O` [N-METHYL-N-NITROSUREA], the IC50 is > 100 µM.
Under `CNC(=O)NCCOCC[n+]1ccc2c(C)c3[nH]c4ccccc4c3c(C)c2c1` stands 75.3 µM; under `Cc1c2cc[n+](CCOCCN)cc2c(C)c2c1[nH]c1ccc(O)cc12`, 17.7 µM; under `COC(=O)c1c2cc[n+](CCCN)cc2c(C)c2c1[nH]c1ccccc12`, 2.5 µM.
As for `COC(=O)c1c2cc[n+](CCOCCNC(=O)N(C)N=O)cc2c(C)c2c1[nH]c1ccccc12`, the IC50 was 51.9 µM.
Under `Cc1c2cc[n+](CCOCCNC(=O)N(C)N=O)cc2c(C)c2c1[nH]c1ccc(O)cc12` stands 60 µM; under `Cc1c2c[n+](CCOCCN)ccc2c(C)c2c1c1cc(O)ccc1n2C`, 17.9 µM; under `Cc1c2c[n+](CCCCCN)ccc2c(C)c2c1c1cc(O)ccc1n2C`, 19.3 µM.
To `CNC(=O)NCCOCC[n+]1ccc2c(C)c3c(c(C)c2c1)c1cc(O)ccc1n3C` belongs 6.2 µM; to `Cc1c2cc[n+](C)cc2c(C)c2c1[nH]c1ccccc12`, 2.9 µM; to `COC(=O)c1c2cc[n+](CCOCCN)cc2c(C)c2c1[nH]c1ccccc12`, 41.3 µM.
To `CNC(=O)NCCOCC[n+]1ccc2c(C)c3[nH]c4ccc(O)cc4c3c(C)c2c1` belongs 29.4 µM.
With `COC(=O)c1c2cc[n+](CCN)cc2c(C)c2c1[nH]c1ccccc12`, the IC50 is 5.8 µM.
To `Cc1c2ccncc2c(C)c2c1[nH]c1ccccc12` [ELLIPTECINE] belongs 2.1 µM.
